Source: the NIST ThermoML archive (doi:10.1016/j.jct.2013.04.015)

Columns and labels:
[1] = for surface tension liquid-gas: Wilhelmy plate method; for mass density: 101 kPa, Liquid, Vibrating tube method
[2] = xn = mol fraction of the nth substance listed; details: for surface tension liquid-gas: Wilhelmy plate method; for mass density: 101 kPa, Liquid, Vibrating tube method

CCCCn1cc[n+](C)c1.C[C@H](O)C(=O)[O-] [1-butyl-3-methylimidazolium L-lactate]
[1]
Details	mass density [kg/m3]	surface tension liquid-gas [mN/m]
293.15 K	1115.3	43.14
298.15 K	1111.2	42.92
303.15 K	1107.5	42.79
308.15 K	1104.2	42.37
313.15 K	1100.5	42.19
318.15 K	1097.7	42.01
323.15 K	1094.1	41.64
333.15 K	1086.1	41.04
343.15 K	1079.8	40.56

CCCCn1cc[n+](C)c1.C[C@H](O)C(=O)[O-] [1-butyl-3-methylimidazolium L-lactate] + CCCCO
[2]
Details	mass density [kg/m3]	surface tension liquid-gas [mN/m]
298.15 K, x1 = 0.01	–	24.18
298.15 K, x1 = 0.0297	–	24.53
298.15 K, x1 = 0.0482	–	24.7
298.15 K, x1 = 0.0601	–	24.83
298.15 K, x1 = 0.0888	–	25.1
298.15 K, x1 = 0.0999	875.7	–
298.15 K, x1 = 0.1001	–	25.17
298.15 K, x1 = 0.1996	927.3	26.2
298.15 K, x1 = 0.3016	–	27.25
298.15 K, x1 = 0.303	968.1	–
298.15 K, x1 = 0.3998	997.8	–
298.15 K, x1 = 0.4004	–	28.42
298.15 K, x1 = 0.4997	–	29.67
298.15 K, x1 = 0.5	1024.2	–
298.15 K, x1 = 0.5889	–	31.11
298.15 K, x1 = 0.6002	1044.6	–
298.15 K, x1 = 0.6979	–	32.64
298.15 K, x1 = 0.7001	1060.8	–
298.15 K, x1 = 0.8	1076.4	–
298.15 K, x1 = 0.8012	–	34.73
298.15 K, x1 = 0.8747	–	36.6
298.15 K, x1 = 0.8999	1091.8	–
298.15 K, x1 = 1	1111.2	42.92
308.15 K, x1 = 0.0101	–	23.63
308.15 K, x1 = 0.0295	–	23.87
308.15 K, x1 = 0.0495	–	24.18
308.15 K, x1 = 0.0604	–	24.22
308.15 K, x1 = 0.0884	–	24.59
308.15 K, x1 = 0.0999	868.3	24.67
308.15 K, x1 = 0.1996	920.3	–
308.15 K, x1 = 0.1999	–	25.68
308.15 K, x1 = 0.3008	–	26.81
308.15 K, x1 = 0.303	960.8	–
308.15 K, x1 = 0.3994	–	28.18
308.15 K, x1 = 0.3998	990.5	–
308.15 K, x1 = 0.4989	–	29.41
308.15 K, x1 = 0.5	1017.2	–
308.15 K, x1 = 0.5877	–	30.83
308.15 K, x1 = 0.6002	1037.4	–
308.15 K, x1 = 0.695	–	32.5
308.15 K, x1 = 0.7001	1053.9	–
308.15 K, x1 = 0.7981	–	34.33
308.15 K, x1 = 0.8	1069	–
308.15 K, x1 = 0.8807	–	36.48
308.15 K, x1 = 0.8999	1084.2	–
308.15 K, x1 = 1	1104.2	42.37
318.15 K, x1 = 0.0101	–	23.08
318.15 K, x1 = 0.0296	–	23.25
318.15 K, x1 = 0.0485	–	23.59
318.15 K, x1 = 0.061	–	23.71
318.15 K, x1 = 0.0903	–	23.93
318.15 K, x1 = 0.0999	859.6	–
318.15 K, x1 = 0.1004	–	24.17
318.15 K, x1 = 0.1996	913	–
318.15 K, x1 = 0.2004	–	25.18
318.15 K, x1 = 0.3011	–	26.53
318.15 K, x1 = 0.303	953.9	–
318.15 K, x1 = 0.3986	–	28
318.15 K, x1 = 0.3998	983.4	–
318.15 K, x1 = 0.4989	–	29.33
318.15 K, x1 = 0.5	1010.1	–
318.15 K, x1 = 0.59	–	30.68
318.15 K, x1 = 0.6002	1030.9	–
318.15 K, x1 = 0.688	–	32.24
318.15 K, x1 = 0.7001	1047.5	–
318.15 K, x1 = 0.7993	–	34.23
318.15 K, x1 = 0.8	1062	–
318.15 K, x1 = 0.8735	–	36.03
318.15 K, x1 = 0.8999	1077.3	–
318.15 K, x1 = 1	1097.7	42.01
